Converted amounts (≈) assume the structure as drawn. Where only a bound is given, the exact number is not on record here.

One series concerns HepG2. Put plainly: MTT cytotoxicity assay, HepG2 (1st panel). The class given is cell-based, human. Particulars: for IC50: Homo sapiens, HepG2, ± SD, MTT, 72 h; for selectivity index SI (HepG2): IC50 normal cell line CCD39Lu/IC50 HepG2. The method, then: (§1) Cell survival was measured as the percentage absorbance compared to the control (nontreated cells). […]
(§2) SI indexes were calculated from equation SI = IC50 normal cell line HDF/IC50 respective cancerous cell line (Table 2). A beneficial SI > 1.0 indicates a compound with efficacy against tumor cell greater than the toxicity against normal cells.
(§3) All experiments were carried out with human breast adenocarcinoma (MDA-MB-231 and MCF-7), hepatocellular carcinoma (HepG2), human cervical adenocarcinoma (HeLa) cancer cell lines, and human normal lung fibroblast (CCD39Lu) cell line. The cell line was purchased from the European Collection of Cells Cultures (ECACC, Salisbury, UK), and cultured in DMEM with phenol red supplemented with 10% (v/v) FBS, 1% (v/v) penicillin/streptomycin, and 1% (v/v) L-glutamine at 37 °C, in a humidified atmosphere containing 5% CO2.
(§4) The tested compounds were dissolved in DMSO to the final concentration 10 mM and stored […]
(§5) The cytotoxic effect of the tested compounds was determined by MTT assay. MDA-MB-231, MCF-7, HepG2, HeLa, and CCD39Lu cells were seeded in 96 wells plates at density 2x10^4 cells/well and incubated overnight under cell culture condition. Next, cells were treated with tested compounds at concentrations of 10 µM; 5 µM; 2.5 µM; 1.2 µM; 0.6 µM; 0.3 µM; 0.15 […]
(§6) µM. Moreover, GDM (for MCF-7) and 8 (for MCF-7 and MDA-MB-231) due to high cytotoxicity, were additionally tested at a lower concentration range of 2.5 µM; 1.2 µM; 0.6 µM; 0.3 µM; 0.15µM; 0.07 µM; 0.03 µM. DMSO was used as a control, and the concentration […]
(§7) Tested compounds were added to cells in the medium without phenol red. Cells were incubated 72 h at 37 °C in a humidified atmosphere containing 5% CO2.
(§8) Then, the medium was aspirated and MTT solution at a concentration of 0.59 mg/mL in cell culture medium was added to each well. Plates were incubated for 1.5 hours at 37 °C, and then plates were centrifuged for 3 minutes. The formazan crystals were dissolved in 200 µl DMSO and plates were agitated on a plate shaker at 300 –500 rpm for 10 minutes. Absorbance at 570 nm was measured using a plate reader (Biotek Instruments, Elx -800). Data were normalized to the mean absorption of control cells. All experiments were performed at least three times. […]
A general note: Tetrazolium dyes change colour on reduction, which living cells bring about.

A further series has as its system CCD39Lu. Briefly: MTT cytotoxicity assay, normal lung fibroblasts CCD39Lu. The class given is cell-based. Particulars: Fibroblast, ± SD, healthy human lung fibroblasts, 72 h, read-out: IC50 CCD39Lu (toxicity in normal cells). Here is the method: as §1, §2, §3, §4, §5, §6, §7, §8
A further series deals with U-87. Put plainly: SRB cytotoxicity assay, U-87 (2nd panel). The class given is cell-based, human. Particulars: for IC50: Homo sapiens, U-87 MG, ± SD, SRB, 72 h; for selectivity index SIHDF (U-87): IC50 normal cell line HDF/IC50 U-87. The method, then:
U-87MG cells (glioblastoma cell line) were cultured in Eagle’s Minimal Essential Medium. Human Dermal Fibroblasts cell line (HDF) was cultured in Fibroblast Basal Medium.
(§9) Each medium was supplemented with 10% fetal bovine serum, 1% L-glutamine, and 1% penicillin/streptomycin solution. The cell lines were kept in the incubator at 37◦C. The optimal plating density of cell lines was determined to be 5 × 104. All the cell lines and mediums were obtained from American Type Culture Collection (ATCC) supplied by LGC-Standards. The protein-staining SRB (Sigma-Aldrich) microculture colorimetric assay, developed by the National Cancer Institute (USA) for in vitro antitumor screening was used in this study, to estimate the cell number by providing a sensitive index of total cellular protein content, being linear to cell density. The monolayer cell culture was trypsinized and the cell count was adjusted to 5 × 10^4 cells. To each well of the 96 well microtiter plate, 0.1 mL of the diluted cell suspension (approximately […]) was added. After 24 hours, when a partial monolayer was formed, the supernatant was washed out and 100 μL of six different compound concentrations (0.1, 0.2, 1, 2, 10, and 20 μM) were added to the cells in microtitre plates. The tested compounds were dissolved in DMSO (containing 10 % of water) (100 μL) and the […]
(§10) lines. The cells were exposed to compounds for 72 hours at 37 °C in a humidified atmosphere (90% RH) containing 5% CO2. After that, 25 μL of 50 % trichloroacetic acid was added to the wells and the plates were incubated for 1 hour at 4◦C. The plates were then washed out with the distilled water to remove traces of medium and next dried by the air. The air-dried plates were stained with 100 μL of 0.4% sulforhodamine B (prepared in 1 % acetic acid) and kept for 30 minutes at room temperature. The unbound dye was removed by rapidly washing with 1% […]
(§11) acetic acid and then air dried overnight. The protein-bound dye was dissolved in 100 μL of 10 mM unbuffered Tris base (pH 10.5) for optical density determination at 490 nm. All cytotoxicity experiments were performed three times. Cell survival was measured as the percentage absorbance compared to the control (nontreated cells). Cytarabine (ara-C) and GDM were used as the internal standards. Additionally biological assays were performed in Human Dermal Fibroblasts cell line (HDF) in aim to evaluate cytotoxicity of GDM and its 1-13 analogs in healthy cells. SI indexes were calculated from equation SI = IC50 normal cell line HDF/IC50 respective cancerous cell line (Table 2). A beneficial SI > 1.0 indicates a compound with efficacy against tumor cell greater than the toxicity against normal cells. […]
In general terms: In SRB staining, fixed cells bind dye roughly in proportion to their protein.

Another series has as its system MDA-MB-231. Put plainly: MTT cytotoxicity assay, MDA-MB-231 (1st panel). To be noted: for IC50: Homo sapiens, MDA-MB-231, ± SD, MTT, 72 h; for selectivity index SI (MDA-MB-231): IC50 normal cell line CCD39Lu/IC50 MDA-MB-231. It counts as cell-based, human. Here is the method: as §1, §2, §3, §4, §5, §6, §7, §8
The subject of the next series is SKBR-3. Briefly: SRB cytotoxicity assay, SKBR-3 (2nd panel). Particulars: for IC50: Homo sapiens, SK-BR-3, ± SD, SRB, 72 h, mixtures equimolar 1:1; for selectivity index SIHDF (SKBR-3): IC50 normal cell line HDF/IC50 SKBR-3. The class given is cell-based, human. The method, then: (§12) Human cancer cells SKBR-3 (human breast cancer cell line) and SKOV-3 (ovarian cancer cell line) were cultured in McCoy’s Modified Medium. […]
(§13) Medium. Human Dermal Fibroblasts cell line (HDF) was cultured in Fibroblast Basal Medium.
as §9, §10, §11

A further series deals with A-549. Put plainly: SRB cytotoxicity assay, A-549 (2nd panel). To be noted: for IC50: Homo sapiens, A549, ± SD, SRB, 72 h; for selectivity index SIHDF (A-549): IC50 normal cell line HDF/IC50 A-549. It counts as cell-based, human. The method, then:
as §13, §9, §10, §11

The next series relates to MCF-7. Briefly: MTT cytotoxicity assay, MCF-7 (1st panel). It counts as cell-based, human. Particulars: for IC50: Homo sapiens, MCF7, 72 h, ± SD, MTT, 72 h; for selectivity index SI (MCF-7): IC50 normal cell line CCD39Lu/IC50 MCF-7. The method, then:
as §1, §2, §3, §4, §5, §6, §7, §8

Another series has as its system SKOV-3. Briefly: SRB cytotoxicity assay, SKOV-3 (2nd panel). It counts as cell-based, human. Particulars: for IC50: Homo sapiens, SK-OV-3, ± SD, SRB, 72 h, mixtures equimolar 1:1; for selectivity index SIHDF (SKOV-3): IC50 normal cell line HDF/IC50 SKOV-3. The method, then:
as §12, §13, §9, §10, §11

The subject of a further series is PC-3. Put plainly: SRB cytotoxicity assay, PC-3 (2nd panel). The class given is cell-based, human. To be noted: for IC50: Homo sapiens, PC-3, ± SD, SRB, 72 h, mixtures equimolar 1:1; for selectivity index SIHDF (PC-3): IC50 normal cell line HDF/IC50 PC-3. Here is the method: as §13, §9, §10, §11
The subject of the next series is HDF. Put plainly: SRB cytotoxicity assay, human dermal fibroblasts HDF. The class given is cell-based. Particulars: 72 h, ± SD, mixtures equimolar 1:1, read-out: IC50 HDF (toxicity in normal cells). Here is the method:
as §13, §9, §10, §11

In a further series the test system is HeLa. Put plainly: MTT cytotoxicity assay, HeLa (1st panel). Particulars: for IC50: Homo sapiens, HeLa, ± SD, MTT, 72 h; for selectivity index SI (HeLa): IC50 normal cell line CCD39Lu/IC50 HeLa. It counts as cell-based, human. Here is the method:
as §1, §2, §3, §4, §5, §6, §7, §8

A further series in a line: physchem. To be noted: water, Solubility SH2O.

One may read the IC50 as the point on the concentration scale where inhibition reaches its midpoint. `COC1=C2C[C@@H](C)C[C@H](OC)[C@H](O)[C@@H](C)/C=C(\C)[C@H](OC(N)=O)[C@@H](OC)/C=C\C=C(/C)C(=O)NC(=CC1=O)C2=O` [GDM, Geldanamycin]: in the series with HepG2, the IC50 stood at 0.74 ± 0.32 µM and the “selectivity index SI (HepG2)” value is listed as 11.48. In addition, the half-maximal inhibitory concentration (IC50) in the series on CCD39Lu is 8.5 ± 0.25 µM. Besides, in the series on U-87, the IC50 amounted to 0.81 ± 0.12 µM and the “selectivity index SIHDF (U-87)” value came out at 2.62. Also, in the series with MDA-MB-231, the half-inhibitory concentration (IC50) stood at 1.04 ± 0.63 µM and the “selectivity index SI (MDA-MB-231)” value came to 8.17. For the same molecule, in the series with SKBR-3, the half-inhibitory concentration (IC50) worked out at 0.87 ± 0.17 µM and the “selectivity index SIHDF (SKBR-3)” value was 2.45. Besides, in the series on A-549, the IC50 came to 0.99 ± 0.01 µM and the “selectivity index SIHDF (A-549)” value was 2.15. Further, in the series with MCF-7, the IC50 came to 3.51 ± 0.21 µM and the “selectivity index SI (MCF-7)” value stood at 2.42. In the series with SKOV-3, the concentration for half-maximal inhibition (IC50) worked out at 0.94 ± 0.09 µM and the “selectivity index SIHDF (SKOV-3)” value was 2.27. Also, in the series on PC-3, the IC50 is 0.73 ± 0.01 µM and the “selectivity index SIHDF (PC-3)” value is 2.92. The “Solubility SH2O” value in “Water solubility SH2O” is “almost water-insoluble”. Further, the CC50 in the series on HDF was 2.13 ± 0.11 µM. In the series with HeLa, the midpoint of inhibition, the IC50, lay at 1.42 ± 0.1 µM and the “selectivity index SI (HeLa)” value stood at 5.99.
One may read the solubility as the concentration that dissolves in the medium under given conditions. Read a low solubility as a poorly soluble substance. As for `CO[C@H]1/C=C\C=C(/C)C(=O)NC2=CC(=O)C(NC3CCC(O)CC3)=C(C[C@@H](C)C[C@H](OC)[C@H](O)[C@@H](C)/C=C(\C)[C@@H]1OC(N)=O)C2=O` (stereo partly shown) [Compound 4], in the series on HepG2, the IC50 was above 10 µM and the “selectivity index SI (HepG2)” value is reported as above 1. Besides, the IC50 with CCD39Lu is above 10 µM. Also, in the series with MDA-MB-231, the IC50 is above 10 µM and the “selectivity index SI (MDA-MB-231)” value is listed as above 1. In the series with MCF-7, the IC50 was above 10 µM and the “selectivity index SI (MCF-7)” value is above 1. Besides, in the series “Water solubility SH2O”, the concentration in solution (solubility) was 40 µg/mL (≈ 62.1 µM). In the series on HeLa, the 50% inhibitory concentration (IC50) was above 10 µM and the “selectivity index SI (HeLa)” value is recorded as above 1.
In “physchem”, `CO[C@H]1/C=C\C=C(/C)C(=O)NC2=CC(=O)C(NC3C[N+]4(Cc5ccsc5Br)CCC3CC4)=C(C[C@@H](C)C[C@H](OC)[C@H](O)[C@@H](C)/C=C(\C)[C@@H]1OC(N)=O)C2=O` (stereo partly shown) [Compound 12] registered a solubility of 4500 µg/mL. Moreover, in the series on HepG2, the half-inhibitory concentration (IC50) is above 10 µM and the “selectivity index SI (HepG2)” value was above 1. For the same molecule, the IC50 with CCD39Lu is above 10 µM. In addition, in the series on U-87, the midpoint of inhibition, the IC50, lay at 8.58 ± 0.19 µM and the “selectivity index SIHDF (U-87)” value was 1.62. Further, in the series on MDA-MB-231, 5.01 ± 2.15 µM corresponded to half-maximal inhibition (IC50) and the “selectivity index SI (MDA-MB-231)” value is above 2.00. Besides, in the series with SKBR-3, the IC50 amounted to 8.49 ± 0.36 µM and the “selectivity index SIHDF (SKBR-3)” value amounted to 1.64. For the same molecule, in the series with A-549, the 50% inhibitory concentration (IC50) was found to be 8.94 ± 0.27 µM and the “selectivity index SIHDF (A-549)” value is 1.56. In the series on MCF-7, 2.65 ± 1.09 µM corresponded to half-maximal inhibition (IC50) and the “selectivity index SI (MCF-7)” value is above 3.77. Moreover, in the series on SKOV-3, the 50% inhibitory concentration (IC50) worked out at 8.02 ± 0.17 µM and the “selectivity index SIHDF (SKOV-3)” value came out at 1.73. In the series with PC-3, the IC50 was 7.94 ± 0.03 µM and the “selectivity index SIHDF (PC-3)” value came out at 1.75. Further, the CC50 with HDF worked out at 13.9 ± 0.42 µM. Further, in the series with HeLa, the half-maximal inhibitory concentration (IC50) was 9.12 ± 1.81 µM and the “selectivity index SI (HeLa)” value is listed as above 1.10.
